In the assay the test system is 616215-338-R-J1-PDC tumor spheroids, viability. As to the kind of experiment: Anticancer human tumor 616215-338-R-J1-PDC patient-derived colon adenocarcinoma cell line growth inhibition [GQUAD]. The following applies: spheroids with HUVEC and MSC; for viability, T/C: stronger effect = lower value. The text has this:
DNA G-quadruplex Stabilizer Agents in Combinations in Complex Spheroids
A high-throughput screen of multi-cell type tumor spheroids was designed to identify active combinations of DNA G-quadruplex stabilizer agents and targeted small molecules. Complex spheroids include a stromal component modeled by human endothelial cells (HUVEC) and fibroblasts modeled by human mesenchymal stem cells (MSCs). The concentration ranges selected for each drug and investigational agent were based upon clinically achievable concentrations if the clinical Cmax of the agent was known.
Compounds. The drugs and investigational agents: pidnarulex (CX-5461; NSC782164), APTO-253 (NSC789042), BRACO-19 (NSC847499), peposertib (NSC802822), ceralasertib (NSC780249), elimusertib (NSC800525), camonsertib (NSC841442), AZD-1390 (NSC803789), olaparib (NSC753686), talazoparib (NSC767125), ART-558 (NSC835418), sotorasib (NSC818433), MRTX-1133 (NSC836407), SN-38 (NSC673596), topotecan (NSC609699), etoposide (NSC141540), doxorubicin (NSC123127), gemcitabine (NSC613327), 5-fluorouracil (NSC19893), paclitaxel (NSC125973), vemurafenib (NSC761431), panobinostat (NSC761190), R-306465 (JNJ-16241199; NSC773264), adavosertib (NSC754352), TP-3654 (NSC805149), carboplatin (NSC241240), KSQ-4279 (NSC840948), and staurosporine (NSC755774) were obtained from the National Cancer Institute (NCI) Developmental Therapeutics Program Chemical Repository (34). The FDA-approved anticancer drug set is available from the NCI Developmental Therapeutics Program. […] The stock solutions were prepared in dimethyl sulfoxide (DMSO, Sigma-Aldrich, St. Louis, MO, cat. D2650) at 800-fold the tested concentration and stored at -70 degrees C prior to their use. All drugs and investigational agents were tested over a range starting from a high concentration at or near the clinical Cmax and decreasing in half-log increments. If the clinical Cmax for an agent had not been determined, the highest concentration tested was 10 microM.
2.3 Cell Culture. All cells were maintained in an incubator at 37 degrees C and 5% CO2 with 95% humidity. The PDC lines were cultured according to standard operating procedures established by the NCI PDMR. All PDCs were thawed and cultured in Matrigel-coated flasks prepared with a working solution of 1X Ham's F-12 nutrient mix, without supplementation (Invitrogen, cat. 11765054), 100 U/mL penicillin-streptomycin (Invitrogen, cat. 15140122), and 2.5% Matrigel (Corning Inc., cat. 354248) for the first three passages. The 857933-349-R-J2-PDC line was cultured in 6C/Colon 1B media, which includes advanced DMEM/F-12 (Thermo Fisher Scientific, cat. 12634028), 10 mM HEPES (Thermo Fisher Scientific, cat. 15630080), 1X GlutaMAX supplement (Thermo Fisher Scientific, cat. 35050061), 0.1 mg/mL primocin (InvivoGen, cat. ant-pm-2), 10% defined fetal bovine serum, heat inactivated (HyClone Laboratories Inc., cat. SH30070.03HI), 50% L-WRN conditioned media (ATCC, cat. CRL-3276), 1.25 mM N-Acetyl-L-cysteine (Sigma-Aldrich, cat. A9165), 10 mM nicotinamide (Sigma-Aldrich, cat. N0636), 1X B-27 supplement (Thermo Fisher Scientific, cat. 17504044), 1X N-2 supplement (Thermo Fisher Scientific, cat. 17502048), 10 microM Y-27632 dihydrochloride (Tocris Bioscience, cat. 1254), and 50 ng/mL human EGF recombinant protein (Thermo Fisher Scientific, cat. PHG0311). The 485176-168-R4-J1-PDC line was cultured in Panc media, which includes all 6C/Colon 1B media components plus 100 ng/mL human FGF-10 (Thermo Fisher Scientific, cat. 100-26), 500 nM SB-431542 (Selleckchem, cat. S1067), and gastrin (Tocris, cat. 3006).
[…]

Several values for one entry are separate records, joined by “and”; a condition that tells them apart may be missing. Identical values can stand only once. A value given as a limit tells only on which side of the number the result lay.
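Also: spheroids exposed to agents for 7 days before readout.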
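For viability, T/C in this document: percent viability relative to DMSO vehicle control wells taken as 100%.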

The viability, T/C is the ratio of treated to control. The term IC50 denotes the concentration needed to halve the response being measured. With `COc1ccc([C@@H](O)c2cc(-c3ncnc4cc(N5CCOCC5)ccc34)c(F)cc2Cl)nn1`, the viability, T/C was 115% and 98% and 99.7% (compound 0.0316 µM); 101% and 102% and 89.1% (compound 0.1 µM); 98% and 106% and 97.2% (compound 0.316 µM); 96.9% and 97.6% and 92.6% (compound 1 µM); 97.4% and 100% and 94.8% (compound 3.16 µM); 56.7% and 49% and 51.9% (compound 10 µM). Besides, the half-inhibitory concentration (IC50) (curve of compound) is > 10 µM and 9.78 µM.
For `COc1cccc2c1C(=O)c1c(O)c3c(c(O)c1C2=O)CC(O)(C(=O)CO)CC3OC1CC(N)C(O)C(C)O1` (configuration not stated), the viability, T/C is, setting by setting: (compound 0.0316 µM) 99.9% and 99.3% and 97.8%; (compound 0.1 µM) 86.1% and 94.3% and 81%; (compound 0.316 µM) 45.8% and 52.1% and 60.8%; (compound 1 µM) 33.6% and 31% and 57.7%; (compound 3.16 µM) 24.8% and 24.6% and 27.7%; (compound 10 µM) 1.26% and 0.35% and 6.04%. In addition, the IC50 (curve of compound) was 0.411 µM and 0.47 µM and 0.878 µM.
In the case of `Cc1[nH]c2ccc(F)cc2c1-c1nc2c3cccnc3c3ncccc3c2[nH]1`, the viability, T/C is 105% [middle of 12 runs] (compound 0.0316 µM); 104% [middle of 12 runs] (compound 0.1 µM); 99.5% [middle of 12 runs] (compound 0.316 µM); 100% [middle of 12 runs] (compound 1 µM); 91.3% [middle of 12 runs] (compound 3.16 µM); 98% [middle of 12 runs] (compound 10 µM). For the same compound, the 50% inhibitory concentration (IC50) was greater than 10 µM (compound alone, run of 04/16/2024) and greater than 10 µM (compound alone, run of 04/22/2024).
With `Cc1[nH]c2ccccc2c1CCNCc1ccc(/C=C/C(=O)NO)cc1`, the viability, T/C runs as follows: (compound 0.000999 µM) 103% and 102% and 97.5%; (compound 0.00316 µM) 95.9% and 93.8% and 101%; (compound 0.00999 µM) 92.1% and 107% and 103%; (compound 0.0316 µM) 108% and 94.3% and 87.4%; (compound 0.0999 µM) 69.3% and 72.3% and 79.7%; (compound 0.316 µM) 17.6% and 10.8% and 27.7%. Also, the IC50 (curve of compound) is 0.154 µM and 0.151 µM and 0.189 µM.
`Cc1cccc(N(C)C(=O)C2C(O)CCN2c2nc(C)cc(C(F)(F)F)c2C#N)c1` (configuration not stated): the viability, T/C (compound 0.0316 µM) was 91.4% and 99.2% and 101%; the viability, T/C (compound 0.1 µM) is 106% and 94.5% and 102%; the viability, T/C (compound 0.316 µM) is 94.1% and 103% and 102%; the viability, T/C (compound 1 µM) is 94% and 96.9% and 105%; the viability, T/C (compound 3.16 µM) is 102% and 98.7% and 113%; the viability, T/C (compound 10 µM) is 102% and 92.6% and 103%. Further, where the note is “curve of compound”, the IC50 was greater than 10 µM.
As for `Cc1cnc(CNC(=O)c2c(=O)c3ccc(N4CCCN(C)CC4)nc3n3c2sc2ccccc23)cn1`, the viability, T/C was 104% [middle of 12 runs] (compound 0.0316 µM), 31.6% [middle of 12 runs] (compound 3.16 µM) and 25.1% [middle of 12 runs] (compound 10 µM).
As for `Cn1ncnc1[C@H]1c2n[nH]c(=O)c3cc(F)cc(c23)N[C@@H]1c1ccc(F)cc1`, the viability, T/C reads like this: (compound 0.000999 µM) 101% and 92.4% and 96.4%; (compound 0.00316 µM) 90.2% and 96.7% and 93.7%; (compound 0.00999 µM) 104% and 101% and 99.2%; (compound 0.0316 µM) 88.4% and 99.1% and 102%; (compound 0.0999 µM) 106% and 100% (2×); (compound 0.316 µM) 99% and 97.3% and 99.4%. For the same compound, the IC50 (curve of compound) is greater than 0.316 µM.
For `Nc1ccn(C2OC(CO)C(O)C2(F)F)c(=O)n1` (configuration not stated), the viability, T/C is 53.3% and 42.5% and 53% (compound 0.0316 µM); 21.3% and 23.8% and 25.2% (compound 0.1 µM); 16.9% and 9.13% and 18.7% (compound 0.316 µM); 17.8% and 10.8% and 15.7% (compound 1 µM); 14% and 12.8% and 17.5% (compound 3.16 µM); 17.1% and 11.2% and 17.3% (compound 10 µM). The IC50 (curve of compound) is 0.0356 µM and < 0.0316 µM and 0.0358 µM.
For the compound `O=C(c1cc(Cc2n[nH]c(=O)c3ccccc23)ccc1F)N1CCN(C(=O)C2CC2)CC1`, the viability, T/C runs as follows: (compound 0.0316 µM) 96.6% and 106% and 92.3%; (compound 0.1 µM) 105% and 99.2% and 101%; (compound 0.316 µM) 98.7% and 104% and 96.1%; (compound 1 µM) 96.9% and 105% and 96.2%; (compound 3.16 µM) 102% and 105% and 98.3%; (compound 10 µM) 67.2% and 66.3% and 73.1%. Further, under “curve of compound”, the IC50 is greater than 10 µM.
As to `O=c1[nH]cc(F)c(=O)[nH]1`, the viability, T/C (compound 0.0316 µM) is 108% and 102% and 111%; the viability, T/C (compound 0.1 µM) is 94.5% and 99.6% and 87%; the viability, T/C (compound 0.316 µM) is 68.3% and 78.9% and 59.7%; the viability, T/C (compound 1 µM) was 40.8% and 52.1% and 38%; the viability, T/C (compound 3.16 µM) was 39.3% and 43.9% and 33.4%; the viability, T/C (compound 10 µM) was 38.3% and 41.7% and 35.4%. Besides, the IC50 (curve of compound) is 0.729 µM and 1.28 µM and 0.523 µM.

Values taken from PubChem BioAssay AID2060493 (Molecular Pharmacology Branch, DTP, NCI, 2025).
